Laboratory results from patent publication EP1462117A1, “Method for in vivo detection of antipsychotic properties of dopamine D3 receptor ligands” (priority 2003, dated 2004).
Where a name gives a salt, the structure may show the parent alone.

Experiments:
[1] = Plasma concentrations in monkeys (radioreceptor assay); type: in vivo; details: monkey; for time of maximal plasma concentration: in vivo; for half-life: plasma
MPTP-intoxicated monkeys = experiment: Levodopa-induced dyskinesia, PD-like symptoms and locomotor activity in MPTP-intoxicated monkeys
[2] = test system: D3 receptor-deficient mice (D3R^-/-); experiment: MK-801-induced locomotor activity in D3 receptor-deficient mice; type: in vivo
Description: (§1) Male Swiss mice (Iffa Credo, France), weighing 25-30 g, were housed four per cage (25 × 15 × 13 cm), on a 12 hr/12 hr light/dark cycle (lights on at 07:00 a.m.), with food and water ad libitum. […] Experiments with D3R-deficient mice were performed on male homozygous mutant mice and their wild-type littermates. […] The mice used in the present study were backcrossed 7 to 8 times.
(§2) All experiments were conducted between 2.00 p.m. and 6.00 p.m., and the animals were kept in the test room at least 1 h before recording their activity. […] Counts for forward horizontal activity were incremented each time the animal moved from one-half part of the cage to the other, corresponding to disruption of two crossed parallel beams distant of 14 cm. In time-course studies, counts were summed every 5 min.
(§3) In addition, another experiment was performed with two groups of 8 mice of each genotype, injected with either saline or haloperidol (0.05 mg/kg).
(§4) Between-group differences were analyzed with the Statistica™ software using two-way analysis of variance (ANOVA) and Least Significance Difference (LSD) post-hoc test. The analysis of data obtained with the same animals evaluated on several occasions (time-course experiments), between-within univariate or multivariate ANOVA for repeated measures were used (time being the repeated measure).

Dopamine transporter = Dopamine transporter binding in monkey striatum (autoradiography); set-up: species or system Macaca fascicularis; details: dorsolateral quadrant, rostral level
Swiss mice [3] = experiment: MK-801 (dizocilpine)-induced and spontaneous locomotor activity, acute treatment, actimeter; type: in vivo
Description: as §1
Haloperidol (Janssen Pharmaceuticals, Beerse, Belgium) and clozapine (Novartis, Basel, Switzerland) were dissolved in a few drops of hydrochloric acid and distilled water, and the pH of the solution was adjusted to pH 5 to 6 using NaOH. […] The compounds were injected i.p. in a volume of 5 ml/kg.
as §2, §4
To assess simply the in vivo biological activity of the novel compound at the D3 receptor, the above described test, in which hyperlocomotion induced by low doses of dizocilpine is measured, was used.

[4] = test system: D3 receptor gene-targeted (D3^-/-) mice; experiment: Continuous MK-801 infusion in D3 receptor gene-targeted mice, locomotor activity; type: in vivo
Description: Dizocilpine, as (+)-MK-801 maleate (Sigma), dissolved in 0.9% NaCl (saline), and its respective vehicle solution, was continuously infused via osmotic minipumps (Model 1007D, Alzet Corp.). Minipumps were filled 6 h prior to implantation and placed in a sterile saline water bath at 37°C. Taking into consideration the average weight of the mice at the time of testing, and the rate of the minipump delivery (specified by the manufacturer), the MK-801 concentration was adjusted to deliver 0.01 or 0.02 mg/kg/hr (0.48 mg/kg/day). Mice were anaesthetized with chloral hydrate (400 mg/kg i.p.), and an area on the back of the mice was shaved and cleaned with 70% ethanol. […]
(§5) Once the minipumps implanted (Day 0), the locomotor activity was measured for 1h, at days 2, 4 and 7 in an actimeter (Imetronic, Pessac, France).
(§6) Between-group differences were analyzed with the Statistica™ software using two-way analysis of variance (ANOVA) and Least Significance Difference (LSD) post-hoc test. The analysis of data obtained with the same animals evaluated on several occasions (time-course experiments), between-within univariate or multivariate ANOVA for repeated measures were used (time being the repeated measure). Data from the resident-intruder assay were analyzed by analysis of variance (ANOVA), followed by a Tukey-Kramer Multiple Comparison post-hoc test.

Swiss mice [5] = experiment: Locomotor hyperactivity induced by continuous infusion of MK-801 (osmotic minipumps); type: in vivo
Description: Male Swiss mice (IFFA CREDO, France), weighing 26-28 g, were housed six per cage (25 × 15 ×13 cm), on a 12 h/12 h light/dark cycle (lights on at 07:00 a.m.), with food and water freely available. Room temperature ranged from 20° to 22°C and humidity varied between 55% and 65%.
Dizocilpine, as (+)-MK-801 maleate (Sigma), dissolved in 0.9% NaCl (saline), and its respective vehicle solution, was continuously infused via osmotic minipumps (Model 1007D, Alzet Corp.). Minipumps were filled 6 h prior to implantation and placed in a sterile saline water bath at 37°C. Taking into consideration the average weight of the mice at the time of testing, and the rate of the minipump delivery (specified by the manufacturer), the MK-801 concentration was adjusted to deliver 0.01 or 0.02 mg/kg/hr (0.48 mg/kg/day). Mice were anaesthetized with chloral hydrate (400 mg/kg i.p.), and an area on the back of the mice was shaved and cleaned with 70% ethanol. A small incision was made, a pocket beneath the skin was formed and the minipump was placed inside the pocket in each mouse. The incision was sutured, and cleaned with 70% ethanol. The mice were returned in their home cage and in about 2 h they had recovered and were active.
as §5, §6

MK-801-treated mice = experiment: Resident-intruder assay in MK-801-treated mice; type: in vivo; details: MK-801 0.02 mg/kg/h for 7 days vs sham
Description: Male mice were housed individually or in groups of five for at least 1 week prior to minipump implantation (Day 0), delivering MK-801 (0.02 mg/kg/h) or saline (Sham), and were tested at day 7. As described in Dixon et al. (1994), a group-housed male (intruder) was placed in the home cage of the individually housed male (resident), and their behaviors were video recorded for 5 min. […] The videotaped behaviors of the resident or intruder male were individually scored, by an experimenter unaware of the treatment group, for time spent in social investigation (approaching, sniffing, grooming other mouse, and sexual behavior), and in escape behavior (actively avoiding the unfamiliar congener). The scores for each behavior were subsequently averaged for each group.
as §6

wild-type (D3R^+/+) mice = experiment: MK-801-induced locomotor activity in wild-type mice; type: in vivo; details: haloperidol 0.05 mg/kg; MK-801 […]; D3R^+/+ mice
Description: Male Swiss mice (Iffa Credo, France), weighing 25-30 g, were housed four per cage (25 × 15 × 13 cm), on a 12 hr/12 hr light/dark cycle (lights on at 07:00 a.m.), with food and water ad libitum. […] Experiments with D3R-deficient mice were performed on male homozygous mutant mice and their wild-type littermates. […] Subsequently, these mice were backcrossed up to 8 times with C57BL6 mice. The mice used in the present study were backcrossed 7 to 8 times.
as §2, §3, §4

[6] = Plasma concentrations in mice; type: in vivo; details: dose inhibiting dizocilpine-induced hyperlocomotion
[7] = one monkey, nafadotride 1.0 mg/kg
[8] = same monkey, nafadotride 1.3 mg/kg
[9] = dyskinetic levodopa-treated MPTP-monkeys
[10] = non-dyskinetic levodopa-treated MPTP-monkeys
[11] = habituation phase, 30 min starting 5 min after injection, all doses tested
[12] = chronic infusion through osmotic minipumps for 7 days

Q: For `CCCCN1CCCC1CNC(=O)c1cc(C#N)c2ccccc2c1OC` (stereo not shown) [nafadotride, N[(n-butyl-2-pyrrolidinyl)methyl]-1-methoxy-4-cyano naphtalene-2-carboxamide], which “time of maximal plasma concentration” value [1] is on record?
A: Its value is 60 min.

Q: What about the half-life [1] of the same molecule?
A: The half-life was roughly 50 min.

Q: What about the on-time duration (MPTP-intoxicated monkeys; from activity counts, threshold at 30% of the maximal activity, over 5 hr) of the same molecule?
A: The on-time duration was “markedly reduced”.

Q: What about the LID score (MPTP-intoxicated monkeys; [7]) of the same molecule?
A: The LID score was 0.5.

Q: What about the PD-like symptoms score (MPTP-intoxicated monkeys; [7]) of the same molecule?
A: Its PD-like symptoms score is 0.

Q: What about the “score of LID” value (MPTP-intoxicated monkeys; [8]) of the same molecule?
A: The value was 0.5.

Q: What about the “score of PD-like symptoms” value (MPTP-intoxicated monkeys; [8]) of the same molecule?
A: Its value is 4.

Q: And the “locomotor activity (activity counts)” value (MPTP-intoxicated monkeys; with levodopa)?
A: Its value is “strongly reduced”.

Q: What about the LID (MPTP-intoxicated monkeys; with levodopa, at first active dose, nafadotride on 3 out of 4 monkeys, ST 198 30-90 min after administration) of the same molecule?
A: Its LID is “reduction of LID similar to that obtained with BP 897”.

Q: What about the “locomotor response to MK-801” value ([2]; compound 1 mg/kg, MK-801 […], D3R^-/- mice) of the same molecule?
A: Its value is “no longer able to inhibit”.

Q: What does the source list for `N[C@@H](Cc1ccc(O)c(O)c1)C(=O)O` [levodopa]?
A: parkinsonian score (MPTP-intoxicated monkeys; dyskinetic monkeys under levodopa, parkinsonism corresponds to a score above 6): 0.2 ± 0.1; LID score (MPTP-intoxicated monkeys; five out of nine levodopa-treated monkeys (severe LID), maximum of 4, levodopa 47 to 60 mg/kg twice daily for 6-8 months): 3.4 ± 0.1; LID score (MPTP-intoxicated monkeys; the four remaining levodopa-treated animals): < 0.4

Q: For `CN1CC=C(c2ccccc2)CC1` [MPTP, 1-methyl-4-phenyl-1,2,3,6-tetrahydropyridine], which “decrease of DAT binding in Pu” value (Dopamine transporter; MPTP-monkeys) is on record?
A: The value was 97.1 ± 0.3%.

Q: And the “decrease of DAT binding in Cd” value (Dopamine transporter; MPTP-monkeys, vs controls)?
A: The value was 96.3 ± 0.3%.

Q: And the “decrease of DAT binding in Cd” value (Dopamine transporter; [9])?
A: The value was 95.7 ± 0.8%.

Q: What about the “decrease of DAT binding in Pu” value (Dopamine transporter; [9]) of the same molecule?
A: Its value is 95.0 ± 1.3%.

Q: And the “decrease of DAT binding in Cd” value (Dopamine transporter; [10])?
A: The value was 96.7 ± 0.4%.

Q: And the “decrease of DAT binding in Pu” value (Dopamine transporter; [10])?
A: Its value is 97.0 ± 0.4%.

Q: For `CN1CCN(C2=Nc3cc(Cl)ccc3Nc3ccccc32)CC1` [clozapine], which spontaneous activity (Swiss mice [3]; [11]) is on record?
A: The spontaneous activity was “no effect”.

Q: Which hypersensitivity to methamphetamine ([4]; MK-801 0.02 mg/kg/h during 7 days, methamphetamine 1 mg/kg i.p.) does the source give for `C[C@]12N[C@H](Cc3ccccc31)c1ccccc12` [MK-801, (+)-5-methyl-10,11-dihydro-5H-dibenzo[a,d]cyclohepten-5,10-imine maleate] here?
A: Its hypersensitivity to methamphetamine is “completely abolished”.

Q: What about the “attenuation of MK-801-induced hyperactivity compared to wild-type (D3^+/+) mice” value ([4]; MK-801 0.02 mg/kg/h for 7 days) of the same molecule?
A: The value was ~ 50%.

Q: And the “duration of locomotor hyperactivity after cessation of the drug delivery” value (Swiss mice [5]; [12])?
A: Its value is “at least 4 days”.

Q: What about the “time at which locomotor hyperactivity first appeared” value (Swiss mice [5]; [12]) of the same molecule?
A: The value was 7 days.

Q: And the “MK-801-induced hyperactivity compared with wild-type littermates” value ([2]; D3 receptor-deficient mice)?
A: The value was “two to three times less”.

Q: What about the “stimulatory effects of MK-801, genotype comparison” value ([2]; MK-801 0.3 mg/kg, D3R^+/+ vs D3R^-/- mice) of the same molecule?
A: Its value is “no significant differences”.

Q: And the “locomotor activity after injection of MK-801” value (Swiss mice [3]; MK-801 0.12 or 0.3 mg/kg i.p., after 30-min habituation)?
A: The value was “locomotor hyperactivity”.

Q: And the “response induced by MK-801 at 0.3 mg/kg relative to […]” value (Swiss mice [3]; locomotor activity, i.p.)?
A: Its value is “about three”.

Q: And the “Social investigations, effect of the MK-801 treatment” value (MK-801-treated mice)?
A: The value was “reduced”.

Q: What about the “escape behavior, effect of the MK-801 treatment” value (MK-801-treated mice) of the same molecule?
A: The value was “enhancement of escape behavior”.

Q: For `O=C(CCCN1CCC(O)(c2ccc(Cl)cc2)CC1)c1ccc(F)cc1` [haloperidol], which MK-801-induced hyperactivity (Swiss mice [5]; acute administration on the 10th day after minipump implantation, clozapine 1 mg/kg, haloperidol 0.3 mg/kg, BP 897 1 mg/kg) is on record?
A: Its MK-801-induced hyperactivity is “inhibited”.

Q: What about the spontaneous hyperactivity (Swiss mice [5]; subchronic treatment twice a day for 4.5 days from day 6, BP 897 1 mg/kg, haloperidol 0.3 mg/kg, recorded at least 6 hours after last administration) of the same molecule?
A: The spontaneous hyperactivity was “reversed”.

Q: And the methamphetamine-induced hyperactivity (Swiss mice [5]; subchronic treatment twice a day for 4.5 days from day 6, methamphetamine 1 mg/kg, recorded at least 6 hours after last administration)?
A: The methamphetamine-induced hyperactivity was “reversed”.

Q: What about the “activity with MK-801” value (Swiss mice [3]; MK-801 […], 60 min, compound i.p. 0.1, 0.3, 1 mg/kg (haloperidol 0.03, 0.1, 0.3 mg/kg), overall dose-response) of the same molecule?
A: Its value is “strongly and dose-dependently blocked”.

Q: What about the MK-801-induced hyperactivity (Swiss mice [3]; compound 0.03 mg/kg i.p., MK-801 […], post-hoc vs saline) of the same molecule?
A: Its MK-801-induced hyperactivity is “significantly reduced”.

Q: And the MK-801-induced hyperactivity (Swiss mice [3]; compound 0.1 mg/kg i.p., MK-801 […], post-hoc vs saline)?
A: Its MK-801-induced hyperactivity is “significantly reduced”.

Q: What about the MK-801-induced hyperactivity (Swiss mice [3]; compound 0.3 mg/kg i.p., MK-801 […], post-hoc vs saline) of the same molecule?
A: The MK-801-induced hyperactivity was “significantly reduced”.

Q: And the spontaneous activity (Swiss mice [3]; compound 0.3 mg/kg i.p., post-hoc vs saline)?
A: The spontaneous activity was “significantly reduced”.

Q: What about the spontaneous activity (Swiss mice [3]; [11]) of the same molecule?
A: The spontaneous activity was “reduction of the spontaneous activity”.

Q: What about the MK-801-induced locomotor activity (wild-type (D3R^+/+) mice) of the same molecule?
A: The MK-801-induced locomotor activity was “strongly inhibited”.

Q: With `O=C(/C=C/c1ccccc1)NCCCCN1CCc2ccccc2C1` [ST 198, (E)-N-(4-[1,2,3,4-tetrahydroisoquinolin-2-yl]-butyl)-3-phenylacrylamide] as the molecule, how does the “time of maximal plasma concentration” value [1] read?
A: Its value is 30 min.

Q: What about the half-life [1] of the same molecule?
A: The half-life was roughly 30 min.

Q: What about the maximal plasma concentration [6] of the same molecule?
A: The maximal plasma concentration was 3.7 ± 0.2 µM.
